Columns and labels:
[1] = Solubility of compounds in 50 mM phosphate buffer pH 7.4 by HPLC; format: physicochemical
Procedure: Solubility is calculated using the following formula: […]

[2] = statement in words; cited from earlier work
[3] = system: mouse model of ARDS; settings: treatment with classical KCa3.1 inhibitors; cited from earlier work
[4] = target: erythrocyte KCa3.1 channels (Homo sapiens (Human), UniProt O15554); assay: Erythrocyte KCa3.1 assay; format: cell-based; settings: human erythrocytes, A23187-activated, 37° C.; read-out: RBC K (in vitro) Human IC50
Procedure: Human blood was drawn from healthy human volunteers in a standard heparinized blood sampling vial (Vacutainer, Li/heparin, BD Bioscience, Plymouth, UK). The erythrocytes were packed by centrifugation, and the plasma and buffy coat were removed by aspiration. Erythrocytes were washed three times in the experimental salt solution and then stored at 0° C. until use. Blood samples from NMRI mice or from Wistar rats were treated similarly. The methodological principle is outlined in Macey et al. (1978) and further described in Strøbæk et al. (2013). Activation of the erythrocyte KCa3.1 channels were obtained by addition of the Ca^2+ ionophore A23187, which causes synchronized hyperpolarization, which is reported as a CCCP-mediated shift in the unbuffered extracellular pH of the erythrocyte suspension. Standard procedure: 3 mL unbuffered experimental salt solution (in mM: 2 KCl, 154 NaCl, 0.05 CaCl2) was heated to 37° C. with stirring. Packed erythrocytes were added (50 μL, final cytocrit 1.5%), and the extracellular pH (pHo) followed with a glass/calomel (pHG200-8/REF200, Radiometer, Denmark) electrode pair. CCCP (3 μL, final concentration 20 μM) was added followed by varying concentrations of test compounds (DMSO concentration constant). After pH stabilization at ˜7.2, A23187 (3 μL, final concentration 0.33 μM) was added to initiate the experiment. After the peak hyperpolarization was attained, the intracellular pH (pHi constant during the experiment) was found by haemolysing the erythrocytes via addition of 100 μL of Triton-X100.
The erythrocyte membrane potential, Vm, was calculated according to: Vm=−61.5 mV×(pHo−pHi) and the fractional remaining Ca^2+-activated K^+-conductance at the concentration C of blocker, fGK(C), was calculated from
[formula] where the K^+ equilibrium potential EK=−107 mV, the Cl^− equilibrium potential ECl=−12 mV and the Vm(0) and Vm(C) are the peak hyperpolarizations in the control and in the presence of a concentration of C of blocker respectively.
IC50 values for compounds were calculated from a plot of fGK(C) versus C by a fit to the Hill equation, using a custom program written in the IGOR-Pro software (WaveMetrics, Lake Oswego, OR, USA). All IC50-values are reported in μM.

[5] = 50 mM potassium phosphate buffer pH 7.40, 16 hr at ~25° C., 1600 μM incubation concentration

Structure (SMILES) | Measured Solubility in pH 7.4 phosphate buffer (mg/ml) [1, 5] [mg/ml] | Measured Solubility in pH 7.4 phosphate buffer (μM) (rounded) [1, 5] | IC50 [4] [nM] | other results
O=C1CSc2ccccc2N1Cc1cccc(C(F)(F)F)c1 [NS6180, 4-[[3-(Trifluoromethyl)-phenyl]methyl]-2H-1,4-benzothiazin-3(4H)-one, reference compound] | – | – | – | Measured Solubility in pH 7.4 phosphate buffer (mg/ml) ([1]; 16 h, pH 7.4): 0.0009 mg/ml
Clc1ccccc1C(c1ccccc1)(c1ccccc1)n1cccn1 [TRAM-34] | – | – | – | Water solubility [2]: extremely low water solubility; Gas exchange in mouse model of ARDS [3]: improved gas exchange
COC(=O)N(CCN(C)C)C1(c2ccc(F)c(C(F)(F)F)c2)CC1 [[1], Methyl N-(2-(dimethylamino)ethyl)-N-(1-(4-fluoro-3-(trifluoromethyl)phenyl)cyclopropyl) carbamate] | 0.5409 | 1600 | 330 | –
COC(=O)N(CC(C)(C)N)C1(c2ccc(F)c(C(F)(F)F)c2)CC1 [[2], Methyl (2-amino-2-methylpropyl)(1-(4-fluoro-3-(trifluoromethyl)phenyl)cyclopropyl)carbamate] | – | – | 86 | Measured Solubility in pH 7.4 phosphate buffer (μM) (rounded) ([1]; 16 h, pH 7.4): 1600 μM
COC(=O)N(CC1(N)CC1)C1(c2ccc(F)c(C(F)(F)F)c2)CC1 [[3], Methyl ((1-aminocyclopropyl)methyl)(1-(4-fluoro-3-(trifluoromethyl)phenyl)cyclopropyl) carbamate] | 0.5599 | 1600 | 160 | –
CC(C)(N)CN(CC1CC1)C1(c2ccc(F)c(C(F)(F)F)c2)CC1 [[8], N1-(cyclopropylmethyl)-N1-(1-(4-fluoro-3-(trifluoromethyl)phenyl)cyclopropyl)-2-methyl propane-1,2-diamine] | – | – | 14 | Measured Solubility in pH 7.4 phosphate buffer (μM) (rounded) ([1]; 16 h, pH 7.4): 1500 μM
CN1CCC1CN(CC(C)(C)O)C1(c2ccc(F)c(C(F)(F)F)c2)CC1 (stereo not drawn) [[16], 1-((1-(4-fluoro-3-(trifluoromethyl)phenyl)cyclopropyl)((1-methylazetidin-2-yl)methyl)amino)-2-methylpropan-2-ol] | – | – | 400 | Measured Solubility in pH 7.4 phosphate buffer (μM) (rounded) ([1]; 16 h, pH 7.4): 1600 μM
COC(=O)N(CC(C)(C)N)C1(c2cc(C(F)(F)F)c(F)cn2)CC1 [[17], Methyl (2-amino-2-methylpropyl)(1-(5-fluoro-4-(trifluoromethyl)pyridin-2-yl)cyclopropyl) carbamate] | 0.5636 | 1500 | 400 | –
COC(=O)N(C[C@@H]1CCCN1C)C1(c2ccc(F)c(C(F)(F)F)c2)CC1 [[27], Methyl (S)-(1-(4-fluoro-3-(trifluoromethyl)phenyl)cyclopropyl) ((1-methylpyrrolidin-2-yl)methyl) carbamate] | 0.5918 | 1600 | 300 | –
COC(=O)N(C[C@H]1CCCN1C)C1(c2ccc(F)c(C(F)(F)F)c2)CC1 [[31], Methyl (R)-(1-(4-fluoro-3-(trifluoromethyl)phenyl)cyclopropyl)((1-methylpyrrolidin-2-yl)methyl)carbamate] | – | – | 81 | Measured Solubility in pH 7.4 phosphate buffer (μM) (rounded) ([1]; 16 h, pH 7.4): 1500 μM
CCOC(=O)N(C[C@@H]1CCCN1C)C1(c2ccc(F)c(C(F)(F)F)c2)CC1 [[35], Ethyl (S)-(1-(4-fluoro-3-(trifluoromethyl)phenyl)cyclopropyl)((1-methylpyrrolidin-2-yl)methyl) carbamate] | 0.5679 | 1500 | 110 | –
CS(=O)(=O)N(C[C@@H]1CCCN1)C1(c2ccc(F)c(C(F)(F)F)c2)CC1 [[36], (S)—N-(1-(4-fluoro-3-(trifluoromethyl)phenyl)cyclopropyl)-N-(pyrrolidin-2-ylmethyl) methanesulfonamide] | 0.3218 | 800 | 320 | –
COC(=O)N(C[C@H]1COCCN1)C1(c2ccc(F)c(C(F)(F)F)c2)CC1 [[42], Methyl (S)-(1-(4-fluoro-3-(trifluoromethyl)phenyl)cyclopropyl)(morpholin-3-ylmethyl) carbamate] | 0.6118 | 1500 | 340 | –
CC(C)OC(=O)N(C[C@@H]1CCCN1)C1(c2ccc(F)c(C(F)(F)F)c2)CC1 [[44], Isopropyl (S)-(1-(4-fluoro-3-(trifluoromethyl)phenyl)cyclopropyl)(pyrrolidin-2-ylmethyl)carbamate] | – | – | 200 | Measured Solubility in pH 7.4 phosphate buffer (μM) (rounded) ([1]; 16 h, pH 7.4): 1600 μM
COC(=O)N(C[C@@]1(C)CCCN1)C1(c2ccc(F)c(C(F)(F)F)c2)CC1 [[46], Methyl (R)-(1-(4-fluoro-3-(trifluoromethyl)phenyl)cyclopropyl)((2-methylpyrrolidin-2-yl)methyl)carbamate] | – | – | 100 | –
NC1(CNC2(c3ccc(F)c(C(F)(F)F)c3)CC2)CC1 [[47], N-((1-aminocyclopropyl)methyl)-1-(4-fluoro-3-(trifluoromethyl)phenyl)cyclopropan-1-amine] | – | – | 220 | –
O=C(OCC1CC1)N(C[C@@H]1CCCN1)C1(c2ccc(F)c(C(F)(F)F)c2)CC1 [[48], Cyclopropylmethyl (S)-(1-(4-fluoro-3-(trifluoromethyl)phenyl)cyclopropyl)(pyrrolidin-2-ylmethyl)carbamate] | – | – | 230 | –
CS(=O)(=O)N(CC1(N)CC1)C1(c2ccc(F)c(C(F)(F)F)c2)CC1 [[49], N-((1-aminocyclopropyl)methyl)-N-(1-(4-fluoro-3-(trifluoromethyl)-phenyl)cyclopropyl)methanesulfonamide] | – | – | 390 | –
COC(=O)N(C[C@]1(C)CCCN1)C1(c2ccc(F)c(C(F)(F)F)c2)CC1 [[50], Methyl (S)-(1-(4-fluoro-3-(trifluoromethyl)phenyl)cyclopropyl)((2-methylpyrrolidin-2-yl)methyl)carbamate] | – | – | 150 | –
N[C@H]1CCC[C@@H]1NC1(c2ccc(F)c(C(F)(F)F)c2)CC1 [[51], (1S, 2S)—N1-(1-(4-fluoro-3-(trifluoromethyl)phenyl)cyclopropyl)-cyclopentane-1,2-diamine] | – | – | 410 | –
N[C@H]1CCC[C@H]1NC1(c2ccc(F)c(C(F)(F)F)c2)CC1 [[52], (1R,2S)—N1-(1-(4-fluoro-3-(trifluoromethyl)phenyl)cyclopropyl)-cyclopentane-1,2-diamine] | – | – | 93 | –
COC(=O)N(C[C@@H]1CCN1)C1(c2ccc(F)c(C(F)(F)F)c2)CC1 [[53], Methyl (S)-(azetidin-2-ylmethyl)(1-(4-fluoro-3-(trifluoromethyl)phenyl)-cyclopropyl)carbamate] | – | – | 360 | Measured Solubility in pH 7.4 phosphate buffer (μM) (rounded) ([1]; 16 h, pH 7.4): 1700 μM
NC(=O)C(c1ccccc1)(c1ccc(F)cc1)c1ccc(F)cc1 [senicapoc] | – | – | – | Water solubility [2]: extremely low water solubility; Gas exchange in mouse model of ARDS [3]: improved gas exchange

— patent US12006289B2, “Potassium channel inhibitors” (Saniona A/S, priority 2019, dated 2024)
